The record followed here is patent US20070027195A1, “Novel compositions comprising higher primary alcohols and nicottinic acid and process of preparation thereof” (PANACEA BIOTEC LTD., priority 2004, published 2007).

The test system of this experiment is mice fed with hypercholesterolemic diet. Kind of experiment: Cholesterol diet-induced hypercholesterolemia in mice (serum lipid profile). It is filed as in vivo, Swiss mice. The settings on record: for HDL-C / LDL-C / Total cholesterol / Triglycerides / VLDL-C: hypercholesterolemic diet, fasting serum, mean ± S.E.M. On the procedure:
In the present invention, the observed unexpected synergistic lipid lowering effect of combination of Extract-A and nicotinic acid is evidenced by the test conducted in mice. Swiss mice of either sex were procured from Central Animal House facility; Panacea Biotec Ltd., India. Animals weighing 20-25 g at the time of testing were used throughout. All animals were dosed sequentially by the oral route with Extract-A and/or nicotinic acid suspended in 0.5% of carboxy methyl cellulose (CMC). A dosing volume of 10 ml/kg was used for each sequential suspension.
The fasting serum lipid profile (TC, TGs, LDL-C, HDL-C, and VLDL) was estimated before initiation of the experiment. Total study duration was of 8 weeks. Hypercholesterolemia was induced by feeding standard chow mixed with 1% cholesterol and 0.2% cholic acid to mice (Kaur and Kulkarni, 2000). Control animals received standard mice chow for 8 weeks whereas cholesterolemic control animals received hypercholesterolemic diet for 8 weeks. The presence of hyperlipidemia in mice was confirmed by estimating serum lipid parameters after 4 weeks. Thereafter, various doses of Extract-A and/or nicotinic acid were administered for another 4 weeks during which animals were fed with high cholesterol diet. Blood samples were collected from fasted mice and analyzed for any alteration in serum lipid profile after 4 weeks of test compound(s) administration.
All the data were expressed as mean ±S.E.M. (Standard Error of Mean). Student t-test was used to compare the lipid parameters between animals fed with standard and hypercholesterolemic diet. The difference between various drug treated groups was analyzed by ANOVA followed by Dunnett's test. A value of P<0.05 was considered as statistically significant.

Structures are written as SMILES. Marks after values point to notes of the source that are not given here.

For the compound `O=C(O)c1cccnc1` [Nicotinic acid], for the setting “10 mg/kg p.o. for 4 weeks”, the HDL-C is on record as 45.82 ± 4.9^a mg/dl, the LDL-C is 65.5 ± 7.01^a mg/dl, the Total cholesterol is recorded as 118.0 ± 4.3^a mg/dl and the Triglycerides is recorded as 33.3 ± 2.6^a mg/dl. Besides, the VLDL-C (10 mg/kg p.o. for 4 weeks) is 20 ± 0.52^a mg/dl. For the setting “20 mg/kg p.o. for 4 weeks”, the HDL-C is given as 42.16 ± 3.19^a mg/dl, the LDL-C is on record as 61.2 ± 2.14^a mg/dl, the Total cholesterol is given as 109.5 ± 1.60^a mg/dl and the Triglycerides is reported as 30.66 ± 1.58^a mg/dl. Further, under “20 mg/kg p.o. for 4 weeks”, the VLDL-C was 6.13 ± 0.31^a mg/dl. Under “40 mg/kg p.o. for 4 weeks”, the HDL-C is 51.33 ± 2.04^a mg/dl, the LDL-C is on record as 44.53 ± 2.17^a mg/dl, the Total cholesterol is 101.6 ± 2.59^a mg/dl and the Triglycerides was 29.0 ± 1.46^a mg/dl. Also, for the setting “40 mg/kg p.o. for 4 weeks”, the VLDL-C is 5.8 ± 0.29^a mg/dl. Further, for the setting “10-40 mg/kg, p.o., dose dependently”, the “Effect on serum lipid parameters in comparison to hypercholesterolemic control (in words)” value is on record as “reversed all the serum lipid parameters”.
